Experimental data: patent US6815421B1, “Polypeptides for use in ameliorating effects of aging in mammals” (Osteopharm Inc., priority 2001, dated 2004)

Assay: Body weight and DEXA body composition in aging intact and ovariectomized rats treated with polypeptide
Format: in vivo, female Sprague-Dawley rats
Details: for increase in bone mineral content / increase in body fat content: DEXA
Protocol: Experiments were conducted using female Sprague-Dawley rats that were about 5 months old at the beginning of the experiments. The rats were obtained from Vivarium of the University of Toronto, Mississauga, Ontario, Canada.
The rats were housed in pairs in either a standard shoebox cage 15 cm in height (low cage) or a cage with 22 cm height (tall cage). Humidity was maintained at 50%; temperature 22° C.; dark/light cycle of 12 hours. The rats were fed Standard Purina Rat Chow (unlimited daily supply) and tap water ad libitum.
Ovariectomies were performed under general isofluorane anaesthesia. A 1.5 cm dorsal midline incision was made. The skin and subcutaneous tissue were separated by blunt dissection. A small incision was made on either side in the posterior abdominal muscle wall (approximately 0.5 cm) to expose the ovaries. The ovaries were removed together with the proximal ends of the Fallopian tubes after the ligation of the ovarian arteries. The wounds in the abdominal muscle wall were not stitched. The dorsal skin wound was closed by three surgical wound clips. Tamgesic (0.2 ml) was given subcutaneously for the relief of pain immediately after the operation.
Body weight measurements were made by direct weighing with an electronic balance (to 0.01 g) and by DEXA measurement, Instrument: Hologic 4500A with program for regional measurement for small animals. The animals were scanned supine under general isofluorane anaesthesia. The whole body was scanned including the whole tail. The weights for the mineral content, the fat content and the lean body mass were summed to obtain total body weight.
Non-treated (control) animals were injected subcutaneously daily with 400 μL of 20 mM sodium acetate (pH 4.5) 5 days per week. Treated animals were injected subcutaneously with 300 nmoles per kg of body weight of the test polypeptide (SEQ ID NO:1) in 400 μL of 20 mM sodium acetate (pH 4.5) daily five days per week. The treatment period was nine months. The material, chemically synthesized, was obtained from the Protein DNA Core facility of Queen's University, Kingston, Ontario, Canada. Purification, by HPLC, indicated the test compound to be at least 95% pure.
DEXA measurements were evaluated as an indication of body composition. Through the attenuation of X-ray energy DEXA measurements provide an indication of the mass of various body tissues. In the Hologic DEXA instrument, the program measures the mass of bone tissue, fat and lean body mass (largely muscle mass). The sum of these measured masses represents total body mass. If this proposition is correct, then the total body mass measured by DEXA and measured directly by balance will be the same. Over the course of these experiments, 677 paired measurements of the body weight were made using the two methods. The results obtained (FIG. 1) indicate that there is a close relationship between the DEXA measurements and the measurements. It was thus concluded that body composition could be assessed using DEXA measurements.
Eight groups of rats were treated as follows:
Ovariectomies were performed at the age of 5 months. The ovariectomized animals were allowed to lose bone for two months following ovariectomy before the treatment began. A baseline measurement was made immediately prior to operation. Another pretreatment baseline measurement was made at the beginning of treatment, i.e. two months after ovariectomization. Measurements were made approximately monthly thereafter. At the end of the experiments, all animals were sacrificed by carbon dioxide narcosis.
Procedures were carried out according to the following schedule: […]

With “Xaa1-Thr-GIn-Glu-His-Thr-Ala-Glu-Cys-Xaa10, where Xaa1 is N-acetyl arginine and Xaa10 is lysinamide (Ac-RTQEHTAECK-NH2) [SEQ ID NO:1, 10-mer, protected at both ends]” the “change in lean body mass” value (all groups of rats (intact and ovariectomized, treated and untreated), 10-month experimental period, FIGS. 6A to 7B) was “relatively small change”, the “increase in bone mineral content” value (intact rats, FIG. 8) was “attenuation of the increase” and the “increase in body fat content” value (intact rats, vs untreated (control) rats, reduction greatest in tall cages, FIG. 4) was “reduced”. For the same substance, the “age-related gain in total body weight” value (intact rats, tall and low cages, 300 nmoles per kg s.c. daily five days per week, vs untreated, FIG. 2) was “lower age-related gain”, the “change in BMC/BW ratio with time” value (intact rats, tall and low cages, vs untreated, FIGS. 10 and 11) was “changed much less” and the “change in LBM/BW ratio with time” value (intact rats, tall and low cages, vs untreated, FIGS. 14 and 15) was “changed much less”. For the same substance, the “attenuating effect on change in LBM/BW ratio over time” value (ovariectomized rats compared with intact rats, FIGS. 14 to 17) was “greater for intact rats than it was for ovariectomized rats”, the “increase in body fat content” value (ovariectomized rats housed in low cages, FIG. 5) was “less so” and the “increase in body fat content” value (ovariectomized rats housed in taller cages, FIG. 5) was “significantly smaller increase”. For the same substance, the “increase in bone mineral content” value (ovariectomized rats, FIG. 9) was “attenuation of the increase”, the overall weight gain (ovariectomized rats, tall and low cages, 300 nmoles per kg s.c. daily five days per week, vs untreated, FIG. 3) was “relative decrease in overall weight gain” and the “attenuating effect on decrease in BMC/BW ratio with time” value (ovariectomized rats, tall and low cages, compared with intact rats, FIGS. 12 and 13) was “less pronounced”.
